The subject of this experiment is MAb AGG-C1. The experiment is described as follows: Competitive inhibition ELISA validating the neoepitope specificity of MAb AGG-C1. It is filed as binding, mouse. To be noted: competitor 1.0-1000 nmol/ml, MAb AGG-C1 0.04 μg/ml, FIG. 5. As to the method:
Streptavidin-coated microtiter plates (Pierce, Rockford, Ill.) were coated with N-terminally biotinylated peptide aggc1 (b-aggc1) by incubating each well with 100 μl of b-aggc1 (100 ng/ml) for 1 h at room temperature. After washing 4 times with phosphate-buffered saline containing 0.01% Tween-20 (PBS-Tween), wells were blocked for 1 h at room temperature with 100 μl of PBS-Tween containing 2% BSA, followed by 4 washes with PBS-Tween.
In order to validate the neoepitope nature of MAb AGG-C1, competition mixtures (100 μl) comprised of MAb AGG-C1 (0.04 μg/ml) and 1.0-1000 nmol/ml of the synthetic peptides GGLPLPRNITEGE (SEQ ID NO:22), GGLPLPRNITEGE ARGSVILTVK-CONH2 (SEQ ID NO:23), undigested aggrecan, or ADAMTS-4 digested aggrecan were preincubated for 1 h at room temperature. Mixtures were then transferred to b-aggc1 coated wells. After a further incubation for 1 h at room temperature, the plates were washed 4 times with PBS-Tween then incubated for 1 h at room temperature with 100 μl of peroxidase-conjugated secondary goat anti-mouse IgG (1:10,000). Following 4 final washes with PBS-Tween, the wells were incubated with TMB 1 component microwell peroxidase substrate (BioFX Laboratories, Owings Mills, Md.). Color development was terminated by the addition of 0.18 M H2SO4, and the absorbance was monitored spectrophotometrically at 450 nm.
(In general: In an ELISA, binding on a coated surface is turned into a signal by an enzyme label.)
In the case of “GGPLPRNITEGEARGSVILTVK [Synthetic peptide spanning the aggrecanase cleavage site]”, the “competition for MAb AGG-C1 binding to biotinylated aggc1 peptide” value is recorded as “did not compete”.
To “undigested aggrecan: Intact bovine aggrecan, used as ELISA competitor” belongs “did not compete”; to “ADAMTS4 digested aggrecan: Bovine aggrecan digested with ADAMTS-4, used as ELISA competitor”, “Dose-dependent competition”.
With “GGLPLPRNITEGE (listed as Homo sapiens) [Synthetic peptide whose C-terminus corresponds to E373 of aggrecan core protein]” the entry was “Dose-dependent competition”.

The values above are taken from patent US20050260733A1, “Proteases and uses thereof” (WYETH, priority 2004, published 2005).
